Measured values published in ChEMBL document CHEMBL1132639, “2-Amino-4-benzyl-4,5,6,7-tetrahydrothiazolo[5,4-c]pyridines: novel selective beta3-adrenoceptor agonists” (J Med Chem, 1999).
Activity calls are given as the source filed them. The calls are words filed in the database; no cut-off is given here.

Tests used:
[1] = biological target: Beta-1 adrenergic receptor (Homo sapiens) (UniProt P08588)
[2] = biological target: T1, Beta-3 adrenergic receptor (Homo sapiens, UniProt P13945); experiment: Drug concentration which produces cAMP response equal to 50% of its maximal response against human beta 3-adrenoceptor in chinese hamster ovary cells was determined; format: functional, cell-based
Target sequence in this assay (P13945 whole entry, looked up): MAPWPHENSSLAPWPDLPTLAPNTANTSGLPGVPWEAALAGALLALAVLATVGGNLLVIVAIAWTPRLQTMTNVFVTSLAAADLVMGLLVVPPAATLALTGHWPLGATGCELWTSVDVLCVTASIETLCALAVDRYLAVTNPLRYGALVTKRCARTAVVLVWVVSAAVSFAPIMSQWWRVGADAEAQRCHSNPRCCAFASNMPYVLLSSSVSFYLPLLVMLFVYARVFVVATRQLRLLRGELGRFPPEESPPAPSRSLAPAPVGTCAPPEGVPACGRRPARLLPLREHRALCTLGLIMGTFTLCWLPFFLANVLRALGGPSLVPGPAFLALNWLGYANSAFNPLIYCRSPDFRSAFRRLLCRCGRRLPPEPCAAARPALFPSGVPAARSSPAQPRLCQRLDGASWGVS

[3] = biological target: T1, Beta-3 adrenergic receptor; experiment: Intrinsic activity expressed as the percentage of maximal analogue response relative to the maximal response(100%) of isoproterenol against human beta-3-adrenoceptor using CRE-LUC assay; format: functional
Target sequence in this assay (P13945 whole entry, looked up): as above

[4] = biological target: Beta-1 adrenergic receptor (Homo sapiens) (UniProt P08588); settings: ovary
[5] = biological target: T1, Beta-3 adrenergic receptor; experiment: Drug concentration which produces a cAMP response equal to 50% of its maximal response against human beta-3-adrenoceptor using CRE-LUC assay; format: functional
Target sequence in this assay (P13945 whole entry, looked up): as above

[6] = biological target: Beta-2 adrenergic receptor (Homo sapiens) (UniProt P07550); settings: ovary
[7] = biological target: Beta-2 adrenergic receptor (Homo sapiens) (UniProt P07550)
[8] = biological target: T1, Beta-3 adrenergic receptor; settings: ovary
Target sequence in this assay (P13945 whole entry, looked up): as above
Description: Drug concentration which produces cAMP response equal to 50% of its maximal response against human beta-3-adrenoceptor expressed in chinese hamster ovary cells was determined

[9] = biological target: Beta-1 adrenergic receptor (Homo sapiens) (UniProt P08588); experiment: Intrinsic activity expressed as the percentage of maximal analogue response relative to the maximal response(100%) of isoproterenol against human beta-1-adrenoceptor; format: functional
[10] = biological target: Beta-2 adrenergic receptor (Homo sapiens) (UniProt P07550); experiment: Drug concentration which produces cAMP response equal to 50% of its maximal response against human beta-2-adrenoceptor in chinese hamster ovary cells was determined; Not active; format: functional, cell-based
[11] = biological target: T1, Beta-3 adrenergic receptor; experiment: Intrinsic activity expressed as the percentage of maximal analogue response relative to the maximal response(100%) of isoproterenol against human beta-3-adrenoceptor; format: functional
Target sequence in this assay (P13945 whole entry, looked up): as above

[12] = biological target: Beta-2 adrenergic receptor (Homo sapiens) (UniProt P07550); settings: ovary; remark: listed apart in the source
[13] = biological target: Beta-1 adrenergic receptor (Homo sapiens) (UniProt P08588); settings: ovary; remark: listed apart in the source
Description: Drug concentration which produces cAMP response equal to 50% of its maximal response against human beta-1-adrenoceptor in chinese hamster ovary cells was determined

[14] = biological target: T1, Beta-3 adrenergic receptor; experiment: Binding Affinity against human Beta-3 adrenergic receptor expressed in Chinese hamster ovary(CHO) cells was measured by using [125I]ICYP radioligand; format: cell-based
Target sequence in this assay (P13945 whole entry): as the sequence (P13945 whole entry, looked up) above

[15] = biological target: T1, Beta-3 adrenergic receptor; experiment: Drug concentration which produces cAMP response equal to 50% of its maximal response against human beta-3-adrenoceptor in chinese hamster ovary cells was determined; Not active; format: functional, cell-based
Target sequence in this assay (P13945 whole entry, looked up): as above

[16] = biological target: Beta-1 adrenergic receptor (Homo sapiens) (UniProt P08588); experiment: Intrinsic activity expressed as the percentage of maximal analogue response relative to the maximal response(100%) of isoproterenol against human beta-1-adrenoceptor using CRE-LUC assay; format: functional

Sequence of Beta-1 adrenergic receptor (Homo sapiens) (P08588 whole entry, looked up): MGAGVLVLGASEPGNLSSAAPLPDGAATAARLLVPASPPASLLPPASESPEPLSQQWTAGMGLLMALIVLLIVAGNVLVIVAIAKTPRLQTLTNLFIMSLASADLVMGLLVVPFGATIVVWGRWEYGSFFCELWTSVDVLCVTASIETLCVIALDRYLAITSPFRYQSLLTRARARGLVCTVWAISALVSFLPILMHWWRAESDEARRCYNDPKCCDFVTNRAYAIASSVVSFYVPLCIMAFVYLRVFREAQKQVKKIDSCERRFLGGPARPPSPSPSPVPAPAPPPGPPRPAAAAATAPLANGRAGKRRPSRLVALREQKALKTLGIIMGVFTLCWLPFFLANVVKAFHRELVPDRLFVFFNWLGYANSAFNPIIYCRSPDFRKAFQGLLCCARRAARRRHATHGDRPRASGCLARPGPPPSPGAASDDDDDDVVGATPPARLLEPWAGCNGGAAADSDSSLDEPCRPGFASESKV
Sequence of Beta-2 adrenergic receptor (Homo sapiens) (P07550 whole entry, looked up): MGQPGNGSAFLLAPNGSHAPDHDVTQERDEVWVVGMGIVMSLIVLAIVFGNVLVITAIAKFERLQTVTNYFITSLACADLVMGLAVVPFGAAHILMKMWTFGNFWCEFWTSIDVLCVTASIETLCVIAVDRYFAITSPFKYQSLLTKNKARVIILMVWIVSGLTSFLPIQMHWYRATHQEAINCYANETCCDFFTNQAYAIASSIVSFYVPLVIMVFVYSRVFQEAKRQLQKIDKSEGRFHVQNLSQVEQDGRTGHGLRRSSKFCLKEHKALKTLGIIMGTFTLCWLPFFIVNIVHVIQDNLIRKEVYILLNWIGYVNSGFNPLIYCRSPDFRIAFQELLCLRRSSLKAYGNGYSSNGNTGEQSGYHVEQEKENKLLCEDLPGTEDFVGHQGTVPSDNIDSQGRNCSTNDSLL

In the case of `COc1c(I)cc(CC2NCCc3nc(N)sc32)cc1I` (stereo not drawn), the pKact [1] is reported as “inactive”, the pKact [2] is reported as 6.95 and the Intrinsic activity [3] is reported as 62. For the same molecule, the pKact [4] was “inactive”, the pKact [5] was 6.71 and the pKact [6] was “inactive”. The pKact [7] was “inactive”.
With `CC(C)NCC(O)c1ccc(O)c(O)c1` (stereo not drawn) the pKact [8] was 7.37.
With `COc1cc(CC2NCCc3nc(N)sc32)cc(OC)c1OC` (stereo not drawn) the pKact [4] was “inactive”, the Intrinsic activity [9] was under 10 and the pKact [10] was “inactive”. It also gave a pKact [8] of 5.06 and an Intrinsic activity [11] of 54.
In the case of `COc1c(I)cc(CC2NCCc3cc(O)c(O)cc32)cc1I` (stereo not drawn), the pKact [12] is reported as 8.47, the pKact [13] is reported as 8.11 and the Ki [14] is reported as 0.0214 µM. For the same molecule, the pKact [8] was 8.76.
Molecule `COc1cc(C[C@@H]2NCCc3cc(O)c(O)cc32)cc(OC)c1OC` has a pKact [12] of 8.33, a pKact [13] of 8.7 and a pKact [8] of 8.6.
With `COc1c(I)cc(CC2NCCc3nc(NC(C)=O)sc32)cc1I` (stereo not drawn) the pKact [4] was “inactive”, the pKact [15] was “inactive” and the pKact [10] was “inactive”.
In the case of `COc1cc(CCNCCc2cnc(N)s2)cc(OC)c1OC`, the Intrinsic activity [3] is reported as under 10, the pKact [4] is reported as “inactive” and the pKact [15] is reported as “inactive”. The Intrinsic activity [16] was under 10 and the pKact [10] was “inactive”.
